Assay results: patent US20230201209A1, “PHARMACEUTICAL COMPOSITION FOR PREVENTING OR TREATING CANCER CONTAINING ANTIVIRAL AGENT AND ANTIDEPRESSANT AS ACTIVE INGREDIENTS” (FRONTBIO INC., priority 2020, published 2023)
Like-named read-outs stand apart in the source and are kept apart here.

System: various cancer cells
Experiment: MTT analysis, summary statements on various cancer cells
Format: cell-based
Method: Specifically, ASPC-1 cell line, which is a pancreatic cancer cell line, and HCT116 cell line, which is a colon cancer cell line, was incubated in a 100 mm culture dish using DMEM-10% FBS under 5% CO2 at 37° C., inoculated into each well of a 96-well plate at 20% confluence, and incubated for 24 hours. The incubated cell lines were treated with efavirenz at a concentration of 2 μM and fluoxetine at a concentration of 2 μM alone or in combination and cultured in a CO2 incubator for 24 hours. The culture medium was removed from each well, 100 pl of a fresh culture medium was added, and 10 μl of a 12 mM MTT stock solution (5 mg MTT/PBS) was added, and incubation was performed at 37° C. for 2 hours. Thereafter, 100 pl of SDS-HCl solution (1 g SDS/10 ml 0.01 M HCl), which was a reaction terminating solution, was added, incubation was performed at 37° C. for 4 hours, and OD was measured at 570 nm using a microplate leader. Percentage (%) growth inhibition was calculated by comparing the OD thus measured to the OD of the cells not treated with drugs.

[1] = treated singly or in a complex, mixed or combined manner, MTT analysis

| SMILES | growth inhibitory effect in cancer cells [1] | growth inhibitory effect in cancer cells |
| --- | --- | --- |
| Cc1cccc(C)c1OCC(=O)N[C@@H](Cc1ccccc1)[C@@H](O)C[C@H](Cc1ccccc1)NC(=O)[C@H](C(C)C)N1CCCNC1=O [lopinavir] | a growth inhibitory effect is exerted | – |
| CNCCCC12CCC(c3ccccc31)c1ccccc12 [maprotyline, maprotiline] | a growth inhibitory effect is exerted | – |
| Clc1ccc2c(c1)C(N1CCNCC1)=Nc1ccccc1O2 [amoxapine] | a growth inhibitory effect is exerted | – |
| CN(C)C(=N)NC(=N)N [metformin] | a growth inhibitory effect is exerted | – |
| Cc1cc(C#N)cc(C)c1Oc1nc(Nc2ccc(C#N)cc2)nc(N)c1Br [etravirine] | a growth inhibitory effect is exerted | – |
| CN(C)CCCN1c2ccccc2CCc2ccc(Cl)cc21 [clomipramine] | a growth inhibitory effect is exerted | – |
| CNCCCC1c2ccccc2C=Cc2ccccc21 [protriptyline] | a growth inhibitory effect is exerted | – |
| O=C1Nc2ccc(Cl)cc2[C@@](C#CC2CC2)(C(F)(F)F)O1 [efavirenz] | a growth inhibitory effect is exerted | – |
| CN(C)CCC=C1c2ccccc2C(C)(C)c2ccccc21 [melitracene, melitracen] | a growth inhibitory effect is exerted | – |
| CNCC[C@H](Oc1cccc2ccccc12)c1cccs1 [duloxetine] | – | a growth inhibitory effect is exerted |
| CC(C)c1nc(CN(C)C(=O)N[C@H](C(=O)N[C@@H](Cc2ccccc2)C[C@H](O)[C@H](Cc2ccccc2)NC(=O)OCc2cncs2)C(C)C)cs1 [ritonavir] | a growth inhibitory effect is exerted | – |
| CNCCC(Oc1ccc(C(F)(F)F)cc1)c1ccccc1 (centres unmarked) [fluoxetine] | a growth inhibitory effect is exerted | – |
| COC(=O)N[C@H](C(=O)N[C@@H](Cc1ccccc1)[C@@H](O)CN(Cc1ccc(-c2ccccn2)cc1)NC(=O)[C@@H](NC(=O)OC)C(C)(C)C)C(C)(C)C [atazanavir] | a growth inhibitory effect is exerted | – |
| CC(C)CN(C[C@@H](O)[C@H](Cc1ccccc1)NC(=O)O[C@H]1CO[C@H]2OCC[C@H]21)S(=O)(=O)c1ccc(N)cc1 [darunavir] | – | a growth inhibitory effect is exerted |
| CNCCC=C1c2ccccc2CCc2ccccc21 [nortriptyline] | a growth inhibitory effect is exerted | – |
| CC(CN(C)C)CN1c2ccccc2CCc2ccccc21 (centres unmarked) [trimipramine] | a growth inhibitory effect is exerted | – |
| COCCCC/C(=N\OCCN)c1ccc(C(F)(F)F)cc1 [fluvoxamine] | a growth inhibitory effect is exerted | – |
| Fc1ccc([C@@H]2CCNC[C@H]2COc2ccc3c(c2)OCO3)cc1 [paroxetine] | a growth inhibitory effect is exerted | – |
| CNCCCN1c2ccccc2CCc2ccccc21 [desipramine] | a growth inhibitory effect is exerted | – |
| CN(C)CCC=C1c2ccccc2CCc2ccccc21 [amitriptyline] | a growth inhibitory effect is exerted | – |
